# Experimental data reported in PubChem BioAssay (NCI).
#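 Dose response: 5 concentrations. Exposure: 48 h. Format: 96-well plates. Endpoint: linear interpolation; highest concentration if not reached. TGI denotes the concentration required for complete inhibition of growth.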 *1 amine or outer side, *2 acyl side, *3 side chain or, on linkers, in order; H or OH if unused. Where a SMILES comes first, the peptide text is derived from it. Bridges are numbered along the chain shown (N, C = ends). Roman numbers before positions name the chains, in order. [ ]: non-standard residue; d: D form. Actinocin(9to1) = Cc1c2oc3c(C)ccc(C(=O)[*:1])c3nc-2c(C(=O)[*:2])c(N)c1=O; X48 = O=C1CC(C(=O)[*:2])N([*:1])C1; NMeV = CN[CH](C(=O)O)C(C)C; Sar = CNCC(=O)O
# Experiments:
# Test in all cases: DTP human tumour cell line panel, 48 h
# [1] = system: 786-0 renal
# [2] = system: A498 renal
# [3] = system: A549 NSCLC
# [4] = system: ACHN renal
# [5] = system: CAKI-1 renal
# [6] = system: HCT-116 colon
# [7] = system: HOP-92 NSCLC
# [8] = system: IGROV1 ovarian
# [9] = system: MCF7 breast
# [10] = system: MDA-MB-231 breast
# [11] = system: MOLT-4 leukemia
# [12] = system: NCI-H226 lung
# [13] = system: NCI-H522 lung
# [14] = system: OVCAR-3 ovarian
# [15] = system: SF-539 CNS
# [16] = system: SK-MEL-5 melanoma
# [17] = system: T-47D breast
# [18] = system: UACC-257 melanoma
# [19] = system: UACC-62 melanoma
# [20] = system: RXF 393 renal
structure (smiles),measurement,setting,value
C=C(C)CC1=C(OCC)C(OC)(OCC)C1=O (stereo unspecified),TGI,[1],> 100 µM
same,TGI,[2],> 100 µM
same,TGI,[3],> 100 µM
same,TGI,[4],> 100 µM
same,TGI,[5],> 100 µM
same,TGI,[6],> 100 µM
same,TGI,[7],> 100 µM
same,TGI,[8],> 100 µM
same,TGI,[9],> 100 µM
same,TGI,[10],> 100 µM
same,TGI,[11],> 100 µM
same,TGI,[12],> 100 µM
same,TGI,[13],> 100 µM
same,TGI,[14],> 100 µM
same,TGI,[15],> 100 µM
same,TGI,[16],> 100 µM
same,TGI,[17],> 100 µM
same,TGI,[18],> 100 µM
same,TGI,[19],> 100 µM
CCCCOC(=O)C1CN2C=CC=NC2=NC1(C(F)(F)F)C(F)(F)F (stereo unspecified),TGI,[1],> 100 µM
same,TGI,[2],> 100 µM
same,TGI,[3],> 100 µM
same,TGI,[4],> 100 µM
same,TGI,[5],> 100 µM
same,TGI,[6],> 100 µM
same,TGI,[7],> 100 µM
same,TGI,[8],> 100 µM
same,TGI,[9],> 100 µM
same,TGI,[10],> 100 µM
same,TGI,[11],> 100 µM
same,TGI,[12],> 100 µM
same,TGI,[14],> 100 µM
same,TGI,[20],> 100 µM
same,TGI,[15],> 100 µM
same,TGI,[16],> 100 µM
same,TGI,[17],> 100 µM
same,TGI,[18],> 100 µM
same,TGI,[19],> 100 µM
Cc1cccc(N=Nc2c(C)nn(C(=O)CC(=O)Nc3ccccc3)c2C)c1,TGI,[1],> 100 µM
same,TGI,[2],> 100 µM
same,TGI,[3],> 100 µM
same,TGI,[4],> 100 µM
same,TGI,[5],> 100 µM
same,TGI,[6],> 100 µM
same,TGI,[7],> 100 µM
same,TGI,[8],> 100 µM
same,TGI,[9],> 100 µM
same,TGI,[10],> 100 µM
same,TGI,[11],> 100 µM
same,TGI,[12],> 100 µM
same,TGI,[13],> 100 µM
same,TGI,[14],> 100 µM
same,TGI,[20],> 100 µM
same,TGI,[15],> 100 µM
same,TGI,[16],> 100 µM
same,TGI,[17],> 100 µM
same,TGI,[19],> 100 µM
CC(=O)OCCCCn1cnc2nc(Nc3ccccc3)nc(Cl)c21,TGI,[1],> 100 µM
same,TGI,[2],> 100 µM
same,TGI,[3],> 100 µM
same,TGI,[4],> 100 µM
same,TGI,[5],81.4 µM
same,TGI,[6],> 100 µM
same,TGI,[7],> 100 µM
same,TGI,[8],> 100 µM
same,TGI,[9],> 100 µM
same,TGI,[10],> 100 µM
same,TGI,[11],> 100 µM
same,TGI,[12],> 100 µM
same,TGI,[14],> 100 µM
same,TGI,[20],> 100 µM
same,TGI,[15],> 100 µM
same,TGI,[16],> 100 µM
same,TGI,[17],> 100 µM
same,TGI,[18],> 100 µM
same,TGI,[19],> 100 µM
CC(C)(C)[Si](C)(C)OCCCCC1CC2(S(=O)(=O)C3=CC=C=C=C3)ON1CC2S(=O)(=O)c1ccccc1 (stereo unspecified),TGI,[1],> 100 µM
same,TGI,[2],> 100 µM
same,TGI,[3],> 100 µM
same,TGI,[4],> 100 µM
same,TGI,[6],> 100 µM
same,TGI,[7],> 100 µM
same,TGI,[8],> 100 µM
same,TGI,[9],> 100 µM
same,TGI,[10],> 100 µM
same,TGI,[11],> 100 µM
same,TGI,[12],> 100 µM
same,TGI,[14],> 100 µM
same,TGI,[20],> 100 µM
same,TGI,[15],> 100 µM
same,TGI,[16],> 100 µM
same,TGI,[17],> 100 µM
same,TGI,[18],> 100 µM
same,TGI,[19],> 100 µM
CCOC(=O)c1sc2nc(SC)nc3c2c1N=CN3c1ccccc1Cl,TGI,[1],33.6 µM
same,TGI,[2],56.3 µM
same,TGI,[3],> 100 µM
same,TGI,[4],55.3 µM
same,TGI,[5],89.1 µM
same,TGI,[6],> 100 µM
same,TGI,[7],74.5 µM
same,TGI,[8],> 100 µM
same,TGI,[9],> 100 µM
same,TGI,[10],> 100 µM
same,TGI,[11],> 100 µM
same,TGI,[12],> 100 µM
same,TGI,[13],> 100 µM
same,TGI,[14],> 100 µM
same,TGI,[20],68.6 µM
same,TGI,[16],> 100 µM
same,TGI,[17],> 100 µM
same,TGI,[18],> 100 µM
same,TGI,[19],> 100 µM
COC(=O)C[C@@H]1C(C)(C)[C@@H]2O[C@@]34C[C@@H]2C(=O)[C@]1(C)[C@H]3CC[C@@]1(C)[C@H](c2ccoc2)OC(=O)C[C@]14O,TGI,[1],> 100 µM
same,TGI,[2],> 100 µM
same,TGI,[3],> 100 µM
same,TGI,[4],> 100 µM
same,TGI,[5],> 100 µM
same,TGI,[6],> 100 µM
same,TGI,[7],> 100 µM
same,TGI,[8],> 100 µM
same,TGI,[9],> 100 µM
same,TGI,[10],> 100 µM
same,TGI,[11],> 100 µM
same,TGI,[12],> 100 µM
same,TGI,[13],> 100 µM
same,TGI,[14],> 100 µM
same,TGI,[15],> 100 µM
same,TGI,[16],> 100 µM
same,TGI,[17],> 100 µM
same,TGI,[18],> 100 µM
same,TGI,[19],> 100 µM
O=C(c1cccc(OCc2ccccc2)c1OCc1ccccc1)N1CCSC1=S,TGI,[1],> 100 µM
same,TGI,[2],80.1 µM
same,TGI,[3],> 100 µM
same,TGI,[4],> 100 µM
same,TGI,[5],> 92.9 µM
same,TGI,[6],> 100 µM
same,TGI,[7],> 100 µM
same,TGI,[8],> 100 µM
same,TGI,[9],> 100 µM
same,TGI,[10],> 78.2 µM
same,TGI,[11],38.7 µM
same,TGI,[12],> 100 µM
same,TGI,[13],> 58.1 µM
same,TGI,[14],62.9 µM
same,TGI,[15],> 100 µM
same,TGI,[16],31.7 µM
same,TGI,[17],> 100 µM
same,TGI,[18],> 87.7 µM
same,TGI,[19],42.6 µM
COc1ccc(CNc2nc3cc(C(F)(F)F)ccc3nc2C(=O)O)cc1OC,TGI,[1],> 100 µM
same,TGI,[2],73.2 µM
same,TGI,[3],> 100 µM
same,TGI,[4],> 100 µM
same,TGI,[5],> 100 µM
same,TGI,[6],75.4 µM
same,TGI,[7],> 100 µM
same,TGI,[8],66 µM
same,TGI,[9],95 µM
same,TGI,[10],> 100 µM
same,TGI,[11],55.7 µM
same,TGI,[12],> 100 µM
same,TGI,[14],58.1 µM
same,TGI,[15],> 100 µM
same,TGI,[16],43.7 µM
same,TGI,[17],> 100 µM
same,TGI,[18],> 100 µM
same,TGI,[19],45.6 µM
O=c1[nH]c(-c2cccc(F)c2)nc2ccccc12,TGI,[1],> 100 µM
same,TGI,[2],> 73.2 µM
same,TGI,[3],> 100 µM
same,TGI,[4],> 68.7 µM
same,TGI,[5],> 100 µM
same,TGI,[6],> 57.7 µM
same,TGI,[7],> 72 µM
same,TGI,[8],> 100 µM
same,TGI,[9],> 100 µM
same,TGI,[10],> 65.9 µM
same,TGI,[11],> 100 µM
same,TGI,[12],> 100 µM
same,TGI,[13],> 100 µM
same,TGI,[14],> 100 µM
same,TGI,[20],89.4 µM
same,TGI,[16],> 100 µM
same,TGI,[17],> 100 µM
same,TGI,[18],> 100 µM
same,TGI,[19],> 67.3 µM
"Cc1c2oc3c(C)ccc(C(=O)NC4C(=O)NC(C(C)C)C(=O)N5CC(=O)CC5C(=O)N(C)CC(=O)N(C)C(C(C)C)C(=O)OC4C)c3nc-2c(C(=O)NC2C(=O)NC(C(C)C)C(=O)N3CC(=O)CC3C(=O)N(C)CC(=O)N(C)C(C(C)C)C(=O)OC2C)c(N)c1=O (stereo unspecified) (I: TV[X48][Sar][NMeV] / II: TV[X48][Sar][NMeV]; ester I:1-I:C, II:1-II:C; linker I:N-II:N via Actinocin(9to1); configuration not given here)",TGI,[1],> 1 µM
same,TGI,[2],> 1 µM
same,TGI,[3],> 1 µM
same,TGI,[4],> 1 µM
same,TGI,[5],> 1 µM
same,TGI,[6],> 1 µM
same,TGI,[7],> 1 µM
same,TGI,[8],> 1 µM
same,TGI,[9],> 1 µM
same,TGI,[10],> 1 µM
same,TGI,[11],> 1 µM
same,TGI,[12],> 1 µM
same,TGI,[14],> 1 µM
same,TGI,[20],> 1 µM
same,TGI,[15],> 1 µM
same,TGI,[16],> 1 µM
same,TGI,[17],> 1 µM
same,TGI,[18],> 1 µM
